The record followed here is patent US20090215894A1, “INHIBITION OF PHOSPHATASE ACTIVITY OF SOLUBLE EPOXIDE HYDROLASE AMINO TERMINUS AND USES THEREOF” (REGENTS OF THE UNIVERSITY OF CALIFORNIA, priority 2005, published 2009).

Data set [1] deals with T1, Human sEH Cterm-EH activity (Homo sapiens, UniProt P34913).
T1 construct: use of a truncated enzyme from crude extract versus purified full-length human sEH; made in house; host or cells: baculovirus expression system (insect cells)
T1 sequence (P34913 1-555): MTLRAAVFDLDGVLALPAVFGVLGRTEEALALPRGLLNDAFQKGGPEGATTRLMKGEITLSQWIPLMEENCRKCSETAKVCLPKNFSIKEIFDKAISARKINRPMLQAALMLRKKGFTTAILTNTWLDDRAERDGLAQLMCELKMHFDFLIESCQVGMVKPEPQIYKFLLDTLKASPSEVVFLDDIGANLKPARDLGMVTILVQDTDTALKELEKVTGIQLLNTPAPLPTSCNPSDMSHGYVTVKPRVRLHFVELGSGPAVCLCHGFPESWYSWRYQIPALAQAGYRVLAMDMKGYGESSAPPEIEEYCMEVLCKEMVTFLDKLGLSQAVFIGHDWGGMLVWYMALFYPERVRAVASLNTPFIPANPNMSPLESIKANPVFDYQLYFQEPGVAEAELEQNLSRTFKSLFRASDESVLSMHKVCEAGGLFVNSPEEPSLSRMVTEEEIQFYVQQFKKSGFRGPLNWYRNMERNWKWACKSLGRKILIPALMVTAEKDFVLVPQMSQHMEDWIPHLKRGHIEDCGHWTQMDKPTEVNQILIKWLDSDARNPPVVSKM
As to the kind of experiment: Cterm-EH inhibition IC50 with 4-nitrophenyl-trans-2,3-epoxy-3-phenylpropyl carbonate. The note with it: substrate 50 μM, 5 min preincubation, 30° C.; read-out: IC50. The data set is classed as biochemical.

The target of data set [2] is T1, Human sEH Cterm-EH activity. As to the kind of experiment: Cterm-EH dissociation constant with [3H]-trans-1,3-diphenylpropene oxide. The data set is classed as biochemical. As for the experimental part:
For the Cterm-EH activity, dissociation constants were determined using racemic [^3H]-trans-1,3-diphenylpropene oxide as substrate. […] Velocity was measured as described (Borhan et al., Anal. Biochem. 231, 188-200 (1995)). […] Results are mean±standard deviation of three separate determination of KI.

The target of a further data set is T2, Nterm-phos (Homo sapiens, UniProt P34913).
T2 construct: use of a truncated enzyme from crude extract versus purified full-length human sEH; made in house; host or cells: baculovirus expression system (insect cells)
T2 sequence (P34913 1-555): T1 sequence (P34913 1-555)
The data set can be described thus: Sulfates tested as substrates for Nterm-phos (LC-MS of alcohol or diol). It is filed as biochemical. The following applies: enzyme 400 nM, compound 100 μM, one hour. As for the experimental part:
To understand the mode of action of these new inhibitors, compounds 1 and 2 were tested as substrates for the Nterm-phos. Enzyme was incubated (400 nM) with the compounds (100 μM) for an hour and analyzed the mixture by LC-MS to detect any alcohol or diol formed (Newman et al., Proc. Natl. Acad. Sci. USA. 100, 1558-1563 (2003)). Formation of any alcohol or diol was not detected.

Another data set deals with T3, truncated human sEH (Homo sapiens, UniProt P34913).
T3 construct: C-terminal region (Mel^237-Met^554) of human sEH was amplified by PCR; made in house; host or cells: baculovirus (pFastBac1) in high-5 Trichoplusia ni cells; 10,000 g supernatant used as crude extract
T3 sequence (P34913 237-555 limits assumed): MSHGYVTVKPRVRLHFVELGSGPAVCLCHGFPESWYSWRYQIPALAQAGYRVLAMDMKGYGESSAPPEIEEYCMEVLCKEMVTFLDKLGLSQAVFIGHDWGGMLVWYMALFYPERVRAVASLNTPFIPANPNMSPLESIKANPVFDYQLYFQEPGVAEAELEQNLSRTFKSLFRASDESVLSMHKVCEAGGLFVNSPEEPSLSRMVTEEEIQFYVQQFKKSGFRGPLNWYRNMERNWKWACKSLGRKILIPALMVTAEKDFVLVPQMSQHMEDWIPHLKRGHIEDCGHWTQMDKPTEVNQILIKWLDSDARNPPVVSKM
As to the kind of experiment: EH activity inhibition, N-terminally truncated human sEH. The data set is classed as biochemical. The source says: (§1) Recombinant human sEH (HsEH) was produced in a baculovirus expression system (Beetham et al., Arch. Biochem. Biophys. 305, 197-201 (1993)) and purified by affinity chromatography (Wixtrom et al., Anal. Biochem. 169, 71-80 (1983)). […] No detectable esterase or glutathione transferase activities were observed. Recombinant mouse-eared cress sEH was produced in a baculovirus expression system and purified as described (Morisseau et al., Arch. Biochem. Biophys. 378, 321-332 (2000)). The nucleotide sequence of the C-terminal region (Mel^[…]) of human sEH was amplified by PCR using [NT] as forward primer and [NT] as reverse primer. The resulting band was gel purified and restricted with EcoR1 and Sal1, which were introduced by the primers, and the restricted fragment sub-cloned into the multiple cloning site of the pFastBac1 vector (Invitrogen). After verification of the obtained nucleotide sequence, the recombinant pFastBac1 plasmid was introduced in competent DH10bac cells leading to the formation of a recombinant plasmid containing the DNA insert. The isolated recombinant plasmid was used to produce recombinant baculovirus in Sf21 cells following procedures recommended by the manufacturer. The truncated HsEH was produced in high-5 Trichloplusia ni cell cultures following published procedures (Beetham et al., Arch. Biochem. Biophys. 305, 197-201 (1993)). Seventy-two hours post infection, the cells were collected by centrifugation (2,000 g×20 min). The cell pellet was then suspended in a sodium phosphate buffer (76 mM, pH 7.4) containing 1 mM of phenylmethylsulfonyl fluoride, EDTA and dithiothretol. The suspension was then homogenized by Polytron at 9,000 rpm for 1 min and centrifuged (10,000 g×20 min). The resulting supernatant was frozen at -80° C. until used for experiments. […] Protein concentrations were quantified with the Pierce BCA assay (Pierce; Rockford, Ill.) using Fraction V bovine serum albumin (BSA) as the calibrating standard. Nterm-Phos activity was measured in Bis-Tris HCl buffer (25 mM PH 7.0) containing 0.1 mg/mL of Fraction V BSA and 1 mM of MgCl2 (buffer A) at 30° C. […] APHP activity was measured as described using 7 as substrate (Newman et al., Proc. Natl. Acad. Sci. USA. 100, 1558-1563 (2003)). Compounds 34-37 were incubated separately with the enzyme for a given time, and then the reaction was stopped by the addition of 100 μL of methanol. The reaction products for compounds 34-37 were extracted with 500 μL of ethyl acetate. The quantification of the alcohol products was performed by LC/MS analysis of 2 μL of the organic phase. […] Biochem. 231, 188-200 (1995)). This latter substrate was also used to measure the activity of the cress sEH and the truncated human sEH.

In another data set the test system is cress sEH. As to the kind of experiment: EH activity inhibition, cress sEH. It is filed as biochemical, mouse-eared cress.
Text: as §1

The next data set addresses T4, full length human sEH (Homo sapiens, UniProt P34913).
T4 construct: use of a truncated enzyme from crude extract versus purified full-length human sEH; made in house; host or cells: baculovirus expression system (insect cells)
T4 sequence (P34913 1-555): T1 sequence (P34913 1-555)
The data set can be described thus: EH activity inhibition, full length human sEH. It is filed as biochemical. Here is the method:
Nterm-Phos activity was measured in Bis-Tris HCl buffer (25 mM PH 7.0) containing 0.1 mg/mL of Fraction V BSA and 1 mM of MgCl2 (buffer A) at 30° C. […] APHP activity was measured as described using 7 as substrate (Newman et al., Proc. Natl. Acad. Sci. USA. 100, 1558-1563 (2003)). Compounds 34-37 were incubated separately with the enzyme for a given time, and then the reaction was stopped by the addition of 100 μL of methanol. The reaction products for compounds 34-37 were extracted with 500 μL of ethyl acetate. The quantification of the alcohol products was performed by LC/MS analysis of 2 μL of the organic phase. The Cterm-EH activity was measured as described previously in buffer A, using either racemic 4-nitrophenyl-trans-2,3-epoxy-3-phenylpropyl carbonate (Dietze et al., Anal. Biochem. 216, 176-187 (1994)) or racemic [^3H]-trans-1,3-diphenylpropene oxide as substrate (Borhan et al., Anal. Biochem. 231, 188-200 (1995)). This latter substrate was also used to measure the activity of the cress sEH and the truncated human sEH.

On to `CCCCCCCCC(CCCCCCCCC(=O)O)OS(=O)(=O)O` (stereo not drawn) [Compound 1, 10-Sulfonooxy-octadecanoic acid], for which, in data set [1], the half-inhibitory concentration (IC50) came to 28 ± 2 µM. The “KI at Cterm-EH relative to KI at Nterm-Phos” value in data set [2] is “roughly 100 fold”. This compound also gave a Ki in data set [2] (non-competitive inhibition, n=3) of 31 ± 2 µM. For the same compound, the “Formation of any alcohol or diol” value at Nterm-phos is listed as “not detected”. Also, the inhibition at 100 µM against truncated human sEH worked out at 89 ± 3%; at full length human sEH, 86 ± 2%. Moreover, in the data set with cress sEH, the “Inhibition at 100 μM (%)” value is on record as <2%.

With `CCCCCCCCC(OS(=O)(=O)O)C(O)CCCCCCCC(=O)O` (stereo not drawn) [Compound 2, 9/10-Sulfonooxy-hydroxy-octadecanoic acid], in data set [1], the IC50 was 90 ± 5 µM. In addition, the “Formation of any alcohol or diol” value on Nterm-phos is listed as “not detected”. Also, the inhibition at 100 µM was found to be 58 ± 2% against truncated human sEH and 54 ± 3% against full length human sEH. The “Inhibition at 100 μM (%)” value in the data set on cress sEH is given as <2%.

On to `CCCCCCCCCC(CCCCCCCC)OS(=O)(=O)O` (stereo not drawn) [Compound 3, 9-Octadecanyl-sulfate], for which the IC50 in data set [1] stood at 21 ± 5 µM. Besides, the inhibition at 100 µM at truncated human sEH came out at 67 ± 3%; against full length human sEH, 72 ± 2%. For the same compound, the “Inhibition at 100 μM (%)” value in the data set on cress sEH is <2%.

Consider `CCCCCCC(C/C=C\CCCCCCCC(=O)O)OS(=O)(=O)O` (stereo not drawn) [Compound 4, 12-Sulfonoxy-cis-9-octadecenoic acid], for which the half-maximal inhibitory concentration (IC50) in data set [1] is > 100 µM. Besides, the inhibition at 100 µM was determined as 16 ± 2% against truncated human sEH and 26 ± 3% against full length human sEH. Moreover, the “Inhibition at 100 μM (%)” value in the data set on cress sEH is on record as <2%.

Consider `CCCCCCC(C/C=C/CCCCCCCC(=O)O)OS(=O)(=O)O` (stereo not drawn) [Compound 5, 12-Sulfonoxy-trans-9-octadecenoic acid], for which the IC50 in data set [1] was determined as 16 ± 3 µM. In addition, the inhibition at 100 µM against truncated human sEH came out at 44 ± 4%; at full length human sEH, 68 ± 2%. For the same compound, the “Inhibition at 100 μM (%)” value in the data set with cress sEH was <2%.

A word on the IC50: it is the concentration needed to halve the response being measured. In general, Ki refers to the dissociation constant of the complex between target and ligand, obtained from inhibition or displacement. A low value points to higher affinity. A word on the inhibition: it is the relative decrease from the control value, in per cent. Lower therefore signals a response near the control. By Inhibition is commonly meant the relative decrease from the control value, in per cent. Higher therefore signals a strong effect.
